From patent US8318781B2, “G-protein-conjugated receptor agonist” (Japan Science and Technology Agency, priority 2007, dated 2012)
Where two headings read alike, the source gives them in different places.

Assays:
Assay type in all cases: cell-based
[1] = target: T1, human GPR40 (hGPR40) (Homo sapiens, UniProt O14842); assay: ERK assay, screening for GPR40 ligands in cell line TXGPR40; settings: TXGPR40 cells; for ERK/GPR40 10 μM: ligand 10 μM; for ERK/GPR40 10 μM / ERK/GPR40 100 μM: class relative to LA; for ERK/GPR40 100 μM: ligand 100 μM
T1 construct: expressed in transfected cells; doxycycline-inducible expression vector
Method: (§1) This Test 1 was carried out by using the following materials and methods.
(§2) (1) In this test, the cell lines TXGPR40 and TXGPR120 were plated in 35-mm dishes in 5×10^5 cells/per dish.
(§3) Each ligand was dissolved in DMSO, diluted tenfold with the medium to make the total amount of 100 μl. DMSO was used as the negative control, and PMA (phorbol-12-myristate-13-acetate) was used as the positive control.
(§4) (3) The medium was removed from the dish of the cell to reduce the total amount of liquid to 0.9 ml.
(§5) (4) The ligand solution was added dropwise to the cell solution, and dispersed by gently shaking the dish, and allowed to react at room temperature.
(§6) (5) After 5 minutes of reaction, the medium was discarded, and the remaining medium on the dish was removed on ice using an aspirator.
(§7) (6) 150 μl of Lysis buffer (50 mM HEPES (pH 7.0), 150 mM NaCl, 10% glycerol, 1% NonidetP-40, 2 mM MgCl2, 1 mM EDTA, 100 mM NaF, 10 mM sodium phosphate, 1 mM Na3VO4, 20 mM β-glycerophosphate, and Proteinase inhibitor) were added, then the cells were collected using a cell scraper.
(§8) (1) The crude enzyme solution mixed with SDS Sample Buffer was subjected to ultrasonication with a sonifier, then incubated at 90° C. for five minutes.
(§9) (2) The mixture was vortexed and centrifuged at 15,000 rpm for five minutes at 4° C.
(§10) (3) The supernatant of the centrifuged sample was applied to two 7.5% acrylamide gel slabs placed in an electrophoresis tank filled with 1×SDS-PAGE Running Buffer (25 mM Tris, 0.2 M Glycin, and 1% SDS). Electrophoresis was carried out under a constant current of 40 mA for about 80 to 90 minutes.
(§11) (1) A PVDF membrane cut in the same size as the gel slab was immersed in methanol for about 15 seconds and then shaken in Transfer Buffer C solution (25 mM Tris, 0.02% SDS, 2% methanol and 40 mM 6-aminohexanoic acid) at room temperature to swell for 15 minutes. Filter paper for blotting was cut into a 10-cm square.
(§12) (2) On the blotting apparatus were placed sequentially two pieces of filter paper immersed in A solution (0.3 M Tris, 0.02% SDS and 2% methanol), two pieces of filter paper immersed in B solution (25 mM Tris, 0.02% SDS and 2% methanol), and the membrane thereon. The gel slab after electrophoresis, and finally two pieces of filter paper immersed in C solution was placed thereon, and the apparatus was closed.
(§13) (3) The protein was transferred to the membrane at 15 V for 30 minutes.
(§14) (1) The following procedure was all carried out at room temperature. After the protein transfer, the membrane was placed into a vial containing 1×TTBS (0.2 M Tris, 1.5 M NaCl, 0.2% Tween 20) and washed for 15 minutes.
(§15) (2) TTBS was discarded, and about 10 ml of Block Ace was added and blocked on a shaker for one hour.
(§16) (1) The primary antibodies (p44/42 MAP Kinase Antibody and Phospho-p44/42 MAP Kinase Antibody) were each diluted 1000-fold with TTBS.
(§17) (2) After blocking, the Block Ace solution was removed, the solution of the primary antibody was added and allowed to react on the shaker for two hours.
(§18) (1) The secondary antibody (Anti-rabbit Ig, Horseradish Peroxidase linked F(ab′)2 fragments) was diluted 5000-fold with TTBS.
(§19) (2) The primary antibody solution was removed and the membrane was washed three times on the shaker in TTBS for five to ten minutes each.
(§20) (3) TTBS was removed and the solution of secondary antibody was added and left for 1 hour on the shaker.
(§21) (1) 2 ml each of Detection Reagent 1 and Detection Reagent 2 from ECL kit were mixed together on ice.
(§22) (2) The solution of secondary antibody was removed from the membrane reacted with the secondary antibody and then washed three times on the shaker in TTBS for five minutes each.
(§23) (3) The liquid was thoroughly removed from the membrane, which was then placed in a plastic bag, and 2 ml of the Detection Reagent mixture was added per each membrane.
(§24) (4) The membrane was kept in contact with a film in the cassette for one to five minutes, and the film was developed using an automatic developing machine.

[2] = target: T2, human GPR120 (hGPR120) (Homo sapiens, UniProt Q5NUL3); assay: ERK assay, screening for GPR120 ligands in cell line TXGPR120; settings: TXGPR120 cells; for ERK/GPR120 10 μM: ligand 10 μM; for ERK/GPR120 10 μM / ERK/GPR120 100 μM: class relative to LA; for ERK/GPR120 100 μM: ligand 100 μM;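 as to ERK/GPR120 10 μM: signals normalized between DMSO and PMA controls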
T2 construct: expressed in transfected cells; doxycycline-inducible expression vector
T2 sequence (Q5NUL3 1-361): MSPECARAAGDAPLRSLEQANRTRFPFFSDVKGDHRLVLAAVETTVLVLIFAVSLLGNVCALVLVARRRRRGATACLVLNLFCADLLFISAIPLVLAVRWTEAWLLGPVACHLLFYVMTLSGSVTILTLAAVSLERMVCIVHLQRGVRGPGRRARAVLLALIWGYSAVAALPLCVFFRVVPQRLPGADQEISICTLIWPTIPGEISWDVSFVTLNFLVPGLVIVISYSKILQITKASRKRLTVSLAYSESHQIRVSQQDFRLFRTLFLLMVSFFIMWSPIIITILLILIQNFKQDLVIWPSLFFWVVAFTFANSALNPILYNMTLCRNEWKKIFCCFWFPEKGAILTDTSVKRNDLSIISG
Method: as §1, §2, §3, §4, §5, §6, §7, §8, §9, §10, §11, §12, §13, §14, §15, §16, §17, §18, §19, §20, §21, §22, §23, §24

[3] = target: T1, human GPR40 (hGPR40); assay: Determination of intracellular Ca2+ concentration (FLIPR), cell line TXGPR40; settings: for agonistic activity for GPR40 (in words): cells in which GPR40 has been transgenically expressed; for [Ca^2+]/GPR40 10 μM (ratio vs. LA): relative fluorescence intensity vs LA at 10 μM
Method: (§25) (1) In this test, The cell lines TXGPR40, TXGPR120 and GPR120/Flp-in were plated onto a collagen-coated black 96-well plate in 2×10^5 cells/well. The 96-well plates containing the cells were centrifuged and treated with Doxycycline (final concentration 10 μg/mL), incubated in a CO2 incubator for 21 hours, then used for assay.
(§26) (2) The ligand used in this test includes NCP04, NCP14, NCG20, NCG21, NCG22, NCG23, NCP02, NCP03, NCP05, NCP06, NCG14, NCG17, NCG19, NCG28, NCG29, NCG30, NCG31, NCG34, NCG35, NCG37, NCG38, NCG44, NCG45, NCG46, and NCG54. Each ligand was dissolved in DMSO and adjusted to the concentration of 10 mM, then diluted with Hanks' Balanced Salt Solution (pH 7.4) containing 20 mM HEPES (referred to as FLIPR buffer hereinafter) to the final concentration of 1 to 100 μM. 1% DMSO was used as the negative control, and LA was used as the positive control.
(§27) The ligands and controls were placed in different 96-well plates from the plates for the cells.
(§28) (3) The 96-well plate containing the cells was removed from the CO2 incubator. A fluorescent dye prepared in a twofold higher concentration (Ca Assay Kit Component A diluted with FLIPR Buffer) was added in 50 μL/well, then allowed to stand in the dark at room temperature for one hour.
(§29) (4) After one hour, the 96-well plate containing the cells and the 96-well plate in which ligands and controls were prepared were set on FLIPR (Fluorometric Imaging Plate Reader) for determination.
(§30) (5) Fluorometry using FLIPR was carried out at a laser output of 1.0 W for five minutes. […] after the start of the determination, the ligand (25 μL) was added dropwise to the cell plate at a rate of 50 μL/sec. The intensity of fluorescence was automatically digitized by the application program installed in the FLIPR from the image taken by the CCD camera (with exposure time of 0.40 sec). The interval of data sampling was one second for the initial one minute after the start of operation, and six seconds for the subsequent four minutes.
(§31) (6) The maximum fluorescence intensity was obtained from the data showing the change in the fluorescence intensity over time observed in each well. The maximum fluorescence intensity was plotted against ligand concentration, and pEC50 was calculated. The ratio of the fluorescence intensity for each ligand to LA at 10 μM was calculated as the relative intensity of each ligand.

[4] = target: T2, human GPR120 (hGPR120); assay: Determination of intracellular Ca2+ concentration (FLIPR), cell line TXGPR120; settings: for agonistic activity for hGPR120 (in words): cells in which GPR120 has been transgenically expressed; for [Ca^2+]/GPR120 10 μM (ratio vs. LA): relative fluorescence intensity vs LA at 10 μM
Method: as §25, §26, §27, §28, §29, §30, §31

[5] = target: T2, human GPR120 (hGPR120); assay: Determination of intracellular Ca2+ concentration (FLIPR), cell line GPR120/Flp-in; settings: for [Ca^2+]/GPR120/Flp-In 10 μM (ratio vs. LA): relative fluorescence intensity vs LA at 10 μM
Method: as §25, §26, §27, §28, §29, §30, §31

[6] = GPR120/Flp-in cells, maximum fluorescence intensity vs ligand concentration, read-out: [Ca^2+]/GPR120/Flp-In pEC50 (converted)
[7] = TXGPR40 cells, maximum fluorescence intensity vs ligand concentration, read-out: [Ca^2+]/GPR40 pEC50 (converted)

T1 sequence (O14842 whole entry): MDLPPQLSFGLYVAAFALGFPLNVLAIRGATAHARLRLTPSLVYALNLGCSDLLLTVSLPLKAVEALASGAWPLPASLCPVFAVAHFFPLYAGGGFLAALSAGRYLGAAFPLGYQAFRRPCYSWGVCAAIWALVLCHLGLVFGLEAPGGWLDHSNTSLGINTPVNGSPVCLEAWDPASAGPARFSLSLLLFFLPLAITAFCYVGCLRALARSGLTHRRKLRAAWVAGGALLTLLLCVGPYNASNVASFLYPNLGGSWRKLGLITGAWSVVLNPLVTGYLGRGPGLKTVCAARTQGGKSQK

Row | ERK activation for GPR40 (in words) ([1]; FIGS. 1-4) | ERK/GPR40 10 μM [1] | ERK/GPR40 100 μM [1] | ERK activation for GPR120 (in words) ([2]; FIGS. 5-8) | ERK/GPR120 10 μM [2] | ERK/GPR120 100 μM [2] | EC50 [3] [µM] | agonistic activity for GPR40 (in words) [3] | [Ca^2+]/GPR40 10 μM (ratio vs. LA) ([3]; TXGPR40 cells) | EC50 [4] [µM] | agonistic activity for hGPR120 (in words) [4] | [Ca^2+]/GPR120 10 μM (ratio vs. LA) ([4]; TXGPR120 cells) | EC50 [5] [µM] | [Ca^2+]/GPR120/Flp-In 10 μM (ratio vs. LA) ([5]; GPR120/Flp-in cells) | EC50 ([4]; TXGPR120 cells, maximum fluorescence intensity vs ligand concentration, read-out: [Ca^2+]/GPR120 pEC50 (converted)) [µM] | EC50 [5, 6] [µM] | EC50 [3, 7] [µM] | Structure (SMILES)
1 |  | +++ (+++ denotes a higher value than LA) | +++ (+++ denotes a higher value than LA) |  | + (+ denotes 0 to 100% of LA) | +++ (+++ denotes a higher value than LA) |  | showed a specific reactivity | 1.22 |  | exhibit a similar effect | 0.00 |  | 0.45 |  | 11.5 | 5.62 | CCCCCN(CCOc1ccc(CCC(=O)O)cc1)c1ccccn1 [NCP05]
2 |  | ++ (++ denotes 50 to 100% of LA) | ++ (++ denotes 50 to 100% of LA) |  |  | ++ (++ denotes 50 to 100% of LA) |  | showed a specific reactivity | 0.98 |  | exhibit a similar effect | 0.00 |  | 0.56 |  | 15.5 | 9.77 | O=C(O)CCc1ccc(OCCN(c2ccccc2)c2ccccn2)cc1 [NCP14]

Continued, compound first:

Row | Structure (SMILES) | ERK activation for GPR40 (in words) ([1]; FIGS. 1-4) | ERK/GPR40 10 μM [1] | ERK/GPR40 100 μM [1] | ERK activation for GPR120 (in words) ([2]; FIGS. 5-8) | ERK/GPR120 10 μM [2] | ERK/GPR120 100 μM [2] | EC50 [3] [µM] | agonistic activity for GPR40 (in words) [3] | [Ca^2+]/GPR40 10 μM (ratio vs. LA) ([3]; TXGPR40 cells) | EC50 [4] [µM] | agonistic activity for hGPR120 (in words) [4] | [Ca^2+]/GPR120 10 μM (ratio vs. LA) ([4]; TXGPR120 cells) | EC50 [5] [µM] | [Ca^2+]/GPR120/Flp-In 10 μM (ratio vs. LA) ([5]; GPR120/Flp-in cells) | EC50 ([4]; TXGPR120 cells, maximum fluorescence intensity vs ligand concentration, read-out: [Ca^2+]/GPR120 pEC50 (converted)) [µM] | EC50 [5, 6] [µM] | EC50 [3, 7] [µM]
3 | Cc1cccc(N(CCOc2ccc(CCCC(=O)O)cc2)c2ccccc2)n1 [NCG38] | strongly activated ERK | ++ (++ denotes 50 to 100% of LA) | +++ (+++ denotes a higher value than LA) | strongly activate ERK | +++ (+++ denotes a higher value than LA) | +++ (+++ denotes a higher value than LA) | 13.5 | showed a specific reactivity | 0.34 | 22.4 | exhibit a similar effect | 0.56 | 6.76 | 0.81 |  |  | 
4 | O=C(O)CCCc1ccc(OCCN(c2ccccc2)c2ncccn2)cc1 [NCG44] |  |  | + (+ denotes 0 to 100% of LA) |  | + (+ denotes 0 to 100% of LA) | ++ (++ denotes 50 to 100% of LA) |  |  | 0.01 |  | exhibit a similar effect | 0.49 |  | 0.85 | 22.9 | 3.55 | 
5 | CCN(CCOc1ccc(CCC(=O)O)cc1)c1ccccn1 [NCP02] |  | + (+ denotes 0 to 100% of LA) | +++ (+++ denotes a higher value than LA) |  | + (+ denotes 0 to 100% of LA) | + (+ denotes 0 to 100% of LA) |  | showed a specific reactivity | 1.47 |  | exhibit a similar effect | 0.00 |  | 0.45 |  | 15.5 | 3.39
6 | CCCN(CCOc1ccc(CCC(=O)O)cc1)c1ccccn1 [NCP03] |  | ++ (++ denotes 50 to 100% of LA) | +++ (+++ denotes a higher value than LA) |  | + (+ denotes 0 to 100% of LA) | ++ (++ denotes 50 to 100% of LA) |  | showed a specific reactivity | 1.25 |  | exhibit a similar effect | 0.00 |  | 0.57 |  | 17.8 | 5.25
7 | CCCCN(CCOc1ccc(CCC(=O)O)cc1)c1ccccn1 [NCP04] |  | +++ (+++ denotes a higher value than LA) | +++ (+++ denotes a higher value than LA) |  | + (+ denotes 0 to 100% of LA) | +++ (+++ denotes a higher value than LA) |  | showed a specific reactivity | 2.15 |  | exhibit a similar effect | 0.00 |  | 0.33 |  | 18.2 | 2.57
